Data on 4 molecules can be found in article PMC6703555 (Journal of medicinal chemistry, 2018).

For series [1] the following is noted: human plasma.
The subject of series [2] is cancer cells. To be noted: 2 hour exposure; cited from earlier work.
A short description of series [3]: in vitro. To be noted: human, plasma, pH 7.5, half-life, 50% pooled human plasma in PBS.
In series [4] the test system is Vγ9Vδ2 T cells. The settings on record: 72 hour compound exposure, PBMCs; cited from earlier work.
Series [5] concerns B30.2 domain of BTN3A1. The settings on record: ITC; cited from earlier work.

Turning to `C/C(=C\CCP(=O)(OCOC(=O)C(C)(C)C)OCOC(=O)C(C)(C)C)CO` [Compound 2], in series [1], the “hydrolysis after two hours” value is “more than 95%”. The EC50 (as a rule, the concentration that produces a half-maximal response) in series [2] was 1.2 nM. The half-life (as a rule, how long it takes for the measured level to halve) in series [3] was ~8 min.
`C/C(=C\CCP(=O)([O-])[O-])CO.[Na+].[Na+]` [Compound 10]: the EC50 in series [4] is 4000 nM. In addition, the “binding to the B30.2 domain of BTN3A1” value in series [5] is listed as “does bind”.
With `COP(=O)(CC/C=C(\C)CO)OC` [Compound 11], the EC50 in series [4] is > 10000 nM.
As for `C/C(=C\COP(=O)(O)OP(=O)(O)O)CO` [HMBPP, (E)-4-hydroxy-3-methyl-but-2-enyl diphosphate], the EC50 in series [2] is 19 nM.
